Experimental data taken from patent publication US20230285389A1, “USE OF CSF-1R KINASE INHIBITOR” (Shanghai Runshi Medical Technology Co., Ltd, priority 2020, published 2023).

Key:
M-NFS-60 cells = assay: Proliferation of CSF-1R highly activated mouse myeloid leukemia cell M-NFS-60 (CCK-8); format: cell-based; conditions: 72 h, read-out: IC50 inhibition of cell proliferation, M-NFS-60
[1] = tested on: CSF-1-induced bone marrow-derived macrophages (BMDM); assay: CSF-1-induced murine-derived macrophage (BMDM) survival (CCK-8); format: cell-based, BALB/c mice; conditions: Mus musculus, 168 h, murine-derived macrophages, 100 ng/mL CSF-1, 7 days, mean±SD, read-out: IC50 inhibition of cell survival, BMDM (CSF-1)
Experimental: BALB/c mice (female, 6 weeks old, healthy) were sacrificed. Bone marrow cells were taken from their femurs and tibia, and seeded into a 96-well culture plate at appropriate densities (90 µL per well) after erythrobiasis treatment. 100 ng/mL of CSF-1 factor was added to each well to induce macrophages (Bone marrow-derived macrophages, BMDM), and compounds at various concentrations were added and the plate was allowed for incubation for 7 days. A solvent control group (negative control) was set. After 7 day-exposure of the cells to the compounds, 10 µL of CCK-8 reagent was added to each well. The culture plate was placed in an incubator at 37° C. for 2-4 h, and then was read with a full-wavelength microplate reader setting at the wavelength of 450 nm.

[2] = tested on: CSF-1-induced human macrophages (PBMC-derived CD14+ monocytes); assay: Survival of CSF-1-induced human macrophages from PBMC (CCK-8); format: cell-based; conditions: 168 h; human-derived macrophages, 100 ng/mL CSF-1, 7 days; mean±SD; read-out: IC50 inhibition of cell survival, PBMC (CSF-1)
Experimental: Cryopreserved human-derived peripheral blood (peripheral blood from healthy donors) mononuclear cells (PBMCs) were taken out of liquid nitrogen for recovery. After recovery, the cells were re-suspended at 50 million/mL with the running buffer and DNAase I was added at a final concentration of 100 µg/mL and the plate was allowed for incubation for 15 min at room temperature. After centrifugation at 300 g for 5 min, the supernatant was discarded. The pellet was re-suspended at 50 million cells/mL with the running buffer, and the suspension was filtered through a 70 µM filter screen into a flow tube. The cells were sorted by using CD14+ monocyte negative selection beads sorting kit from […] company. According to the manufacture’s instructions, the specific experimental procedures were as follows.
After cells were re-suspended at 50 million cells/mL, 50 µL of the cocktail was added to each one mL of samples. The samples were incubated at room temperature for 5 min. The magnetic beads were vortexed for 30 sec, and added to the samples. The samples were incubated for further 5 min. The sample volumes were made up to 2.5 mL. The samples were placed on a magnetic frame ([…], #18000) for 2.5 min. […] The plate was placed in an incubator at 37° C. for 2-4 h, and then was read with an adjustable wavelength microplate reader setting at a wavelength of 450 nm.

[3] = cited from earlier work

FC(F)(F)c1ccc(CNc2ccc(Cc3c[nH]c4ncc(Cl)cc34)cn2)cn1 [PLX3397, Pexidartinib, reference compound]
IC50 (M-NFS-60 cells): 62.6 ± 15.8 nM | IC50 [1]: 48.9 ± 5.9 nM | IC50 [2]: 237 ± 14.7 nM | black box warning on drug label ([3]; drug label): risk of severe and potentially fatal liver injury

Bavencio: anti-PD-L1 antibody
adverse response in treated patients ([3]; some of the patients): infusion-related response predominantly of grade 1-3 severity

Yervoy: an anti-CTLA-4 antibody
patients experiencing immune-related adverse events ([3]; treated patients): up to 60% | share of immune-related adverse events that were severe (grade 3-4) ([3]; treated patients): 10-30%
